Holding throughout (type): cell-based
Assay [1] has as its system mantle cell lymphoma cell (Mino or JeKo-1). The assay is described as follows: Antiproliferative effect, MTS cell viability assay. Conditions: 72 h, mantle cell lymphoma cell (Mino or JeKo-1), MTS assay, read-out: IC50 (anti-proliferation). The method, boiled down:
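MTS read-out (formazan absorbance at 490 nm) after 72 h exposure of Mino cells to 0–1 μM compound (0.0001, 0.001, 0.01, 0.1, 1 μM). Palbociclib and abemaciclib served as positive controls.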

Assay [2] has as its target T1, CDK6 (Homo sapiens, UniProt Q00534).
T1 construct: endogenous in cells
Description: CDK6 degradation (DC50, Dmax).

Assay [3] deals with T2, CDK4 (Homo sapiens, UniProt P11802).
T2 construct: endogenous in cells
The assay is described as follows: CDK4 degradation (DC50, Dmax).

This note sets out measurements from patent US20230295118A1 (EnhancedBio Inc., priority 2022, published 2023).

T2 sequence (P11802 whole entry): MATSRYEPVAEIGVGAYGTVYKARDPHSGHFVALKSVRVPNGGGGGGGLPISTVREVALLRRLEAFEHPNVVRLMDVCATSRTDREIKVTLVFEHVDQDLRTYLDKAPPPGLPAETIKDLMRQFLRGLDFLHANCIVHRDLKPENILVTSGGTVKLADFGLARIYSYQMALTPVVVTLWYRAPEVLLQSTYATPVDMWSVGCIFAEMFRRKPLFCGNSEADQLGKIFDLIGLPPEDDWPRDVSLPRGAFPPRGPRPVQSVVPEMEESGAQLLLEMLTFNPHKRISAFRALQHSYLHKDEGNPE
T1 sequence (Q00534 whole entry): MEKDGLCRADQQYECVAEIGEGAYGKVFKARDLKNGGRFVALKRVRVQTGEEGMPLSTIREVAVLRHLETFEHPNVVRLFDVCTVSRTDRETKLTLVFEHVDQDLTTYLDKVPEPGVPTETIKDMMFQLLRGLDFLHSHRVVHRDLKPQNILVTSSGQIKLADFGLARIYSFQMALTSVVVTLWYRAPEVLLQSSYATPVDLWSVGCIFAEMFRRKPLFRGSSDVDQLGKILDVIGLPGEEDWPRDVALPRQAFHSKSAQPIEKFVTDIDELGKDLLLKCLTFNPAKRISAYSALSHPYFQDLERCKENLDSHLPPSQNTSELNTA

On to `CC(=O)c1c(C)c2cnc(Nc3ccc(N4CCN(CC5CCN(C(=O)N6CCC(CCN7CCN(c8ccc9c(c8)C(=O)N(C8CCC(=O)NC8=O)C9=O)CC7)CC6)CC5)CC4)cn3)nc2n(C2CCCC2)c1=O` (stereo not shown) [Compound 83, 5-(4-(2-(1-(4-((4-(6-((6-acetyl-8-cyclopentyl-5-methyl-7-oxo-7,8-dihydropyrido[2,3-d]pyrimidin-2-yl)amino)pyridin-3-yl)piperazin-1-yl)methyl)piperidine-1-carbonyl)piperidin-4-yl)ethyl)piperazin-1-yl)-2-(2,6-dioxopiperidin-3-yl) isoindoline-1,3-dione], for which, in assay [1], the IC50 is above 200 nM. For the same compound, in assay [2], the DC50 (commonly the concentration giving 50% degradation) was above 200 nM and the greatest degradation seen (Dmax) (in general, the greatest extent of degradation seen) is above 50%. In addition, in assay [3], the DC50 is above 200 nM and the Dmax is above 50%.
With `CC(=O)c1c(C)c2cnc(Nc3ccc(N4CCN(C5CCN(C(=O)N6CCC(CCN7CCN(c8ccc9c(c8)C(=O)N(C8CCC(=O)NC8=O)C9=O)CC7)CC6)CC5)CC4)cn3)nc2n(C2CCCC2)c1=O` (stereo not shown) [Compound 87, 5-(4-(2-(1-(4-(4-(6-((6-acetyl-8-cyclopentyl-5-methyl-7-oxo-7,8-dihydropyrido[2,3-d]pyrimidin-2-yl)amino)pyridin-3-yl)piperazin-1-yl)piperidine-1-carbonyl)piperidin-4-yl)ethyl)piperazin-1-yl)-2-(2,6-dioxopiperidin-3-yl) isoindoline-1,3-dione], the IC50 in assay [1] is 50 to 200 nM. Further, the DC50 in assay [2] and in assay [3] was 50 to 200 nM each time. Further, the Dmax in assay [2] and in assay [3] was above 60% in each case.
With `Cc1nc2c(F)cc(-c3nc(Nc4ccc(CN5CCN(CC6CCN(c7ccc(N8CCC(=O)NC8=O)cc7)CC6)CC5)cn4)ncc3F)cc2n1C(C)C` [Compound 108, 1-(4-(4-((4-((6-((5-fluoro-4-(4-fluoro-1-isopropyl-2-methyl-1H-benzo[d]imidazol-6-yl)pyrimidin-2-yl)amino)pyridin-3-yl)methyl)piperazin-1-yl)methyl)piperidin-1-yl)phenyl) dihydropyrimidine-2,4(1H,3H)-dione], the IC50 in assay [1] is below 50 nM. Further, in assay [2], the DC50 was below 50 nM and the Dmax was above 80%. In assay [3], this compound yielded a DC50 below 50 nM and a Dmax above 80%.
With `CC(=O)c1c(C)c2cnc(Nc3ccc(N4CCN(C5CN(c6ccc(C(=O)NC7CCC(=O)NC7=O)cc6)C5)CC4)cn3)nc2n(C2CCCC2)c1=O` (stereo not shown) [Compound 102, 4-(3-(4-(6-((6-acetyl-8-cyclopentyl-5-methyl-7-oxo-7,8-dihydropyrido[2,3-d]pyrimidin-2-yl)amino)pyridin-3-yl)piperazin-1-yl)azetidin-1-yl)-N-(2,6-dioxopiperidin-3-yl)benzamide], in assay [1], the IC50 was in the range of 50 to 200 nM. In assay [2], this compound came in with a DC50 of 50 to 200 nM and a Dmax above 60%. In assay [3], this compound registered a DC50 of 50 to 200 nM and a Dmax above 80%.
For `CC(=O)c1c(C)c2cnc(Nc3ccc(N4CCN(C(=O)N5CCC(N6CCN(c7ccc8c(c7)C(=O)N(C7CCC(=O)NC7=O)C8=O)CC6)CC5)CC4)cn3)nc2n(C2CCCC2)c1=O` (stereo not shown) [Compound 3, 5-(4-(1-(4-(6-((6-acetyl-8-cyclopentyl-5-methyl-7-oxo-7,8-dihydropyrido[2,3-d]pyrimidin-2-yl)amino)pyridin-3-yl)piperazine-1-carbonyl)piperidin-4-yl)piperazin-1-yl)-2-(2,6-dioxopiperidin-3-yl)isoindoline-1,3-dione], the IC50 in assay [1] fell in the range of 50 to 200 nM. In assay [2], the DC50 was above 200 nM and the Dmax was above 50%. Moreover, in assay [3], the DC50 was above 200 nM and the Dmax is above 50%.
On to `CC(=O)c1c(C)c2cnc(Nc3ccc(C4CCN(C(=O)C5CN(c6ccc7c(c6)C(=O)N(C6CCC(=O)NC6=O)C7=O)C5)CC4)cn3)nc2n(C2CCCC2)c1=O` (stereo not shown) [Compound 129, 5-(3-(4-(6-((6-acetyl-8-cyclopentyl-5-methyl-7-oxo-7,8-dihydropyrido[2,3-d]pyrimidin-2-yl)amino)pyridin-3-yl)piperidine-1-carbonyl)azetidin-1-yl)-2-(2,6-dioxopiperidin-3-yl)isoindoline-1,3-dione], for which, in assay [1], the IC50 was in the range of 50 to 200 nM. For the same compound, the DC50 in assay [2] and in assay [3] was 50 to 200 nM throughout. Further, the Dmax in assay [2] and in assay [3] was above 80% each time.
As to `CC(=O)c1c(C)c2cnc(Nc3ccc(N4CCN(CC5CN(c6ccc(C(=O)NC7CCC(=O)NC7=O)cc6)C5)CC4)cn3)nc2n(C2CCCC2)c1=O` (stereo not shown) [Compound 119, 4-(3-((4-(6-((6-acetyl-8-cyclopentyl-5-methyl-7-oxo-7,8-dihydropyrido[2,3-d]pyrimidin-2-yl)amino)pyridin-3-yl)piperazin-1-yl)methyl)azetidin-1-yl)-N-(2,6-dioxopiperidin-3-yl)benzamide], in assay [1], the IC50 is below 50 nM. For the same compound, the DC50 in assay [2] and in assay [3] was 50 to 200 nM throughout. Besides, the Dmax in assay [2] and in assay [3] was above 80% throughout.
Consider `Cc1nc2c(F)cc(-c3nc(Nc4ccc(CN5CCN(C(=O)C6CCN(c7ccc(NC8CCC(=O)NC8=O)cc7)CC6)CC5)cn4)ncc3F)cc2n1C(C)C` (stereo not shown) [Compound 156, 3-((4-(4-(4-((6-((5-fluoro-4-(4-fluoro-1-isopropyl-2-methyl-1H-benzo[d]imidazol-6-yl)pyrimidin-2-yl)amino)pyridin-3-yl)methyl)piperazine-1-carbonyl)piperidin-1-yl)phenyl)amino) piperidine-2,6-dione], for which, in assay [1], the IC50 lay in the range of 50 to 200 nM. In assay [2], this compound displayed a DC50 of 50 to 200 nM and a Dmax above 80%. In assay [3], the DC50 lay within 50 to 200 nM and the maximal degradation (Dmax) was above 60%.
On to `CC(=O)c1c(C)c2cnc(Nc3ccc(N4CCN(C5CCN(C(=O)N6CCN(c7ccc8c(c7)CN(C7CCC(=O)NC7=O)C8=O)CC6)CC5)CC4)cn3)nc2n(C2CCCC2)c1=O` (stereo not shown) [Compound 36, 3-(5-(4-(4-(4-(6-((6-acetyl-8-cyclopentyl-5-methyl-7-oxo-7,8-dihydropyrido[2,3-d]pyrimidin-2-yl)amino)pyridin-3-yl)piperazin-1-yl)piperidine-1-carbonyl)piperazin-1-yl)-1-oxoisoindolin-2-yl)piperidine-2,6-dione], for which the IC50 in assay [1] was 50 to 200 nM. In assay [2], the DC50 was above 200 nM and the Dmax was above 60%. In assay [3], the DC50 is above 200 nM and the Dmax is above 60%.
On to `Cc1nc2c(F)cc(-c3nc(Nc4ccc(CN5CCN(C6CN(c7ccc8c(c7)CN(C7CCC(=O)NC7=O)C8=O)C6)CC5)cn4)ncc3F)cc2n1C(C)C` (stereo not shown) [Compound 97, 3-(5-(3-(4-((6-((5-fluoro-4-(4-fluoro-1-isopropyl-2-methyl-1H-benzo[d]imidazol-6-yl)pyrimidin-2-yl)amino)pyridin-3-yl)methyl)piperazin-1-yl)azetidin-1-yl)-1-oxoisoindolin-2-yl)piperidine-2,6-dione], for which the IC50 in assay [1] is below 50 nM. Besides, the DC50 in assay [2] and in assay [3] was below 50 nM each time. In addition, the Dmax in assay [2] and in assay [3] was above 80% throughout.
`CN(C)C(=O)c1cc2cnc(Nc3ccc(N4CCN(CCCNc5ccc6c(c5)C(=O)N(C5CCC(=O)NC5=O)C6=O)CC4)cn3)nc2n1C1CCCC1` (stereo not shown) [Compound 75, 7-cyclopentyl-2-((5-(4-(3-((2-(2,6-dioxopiperidin-3-yl)-1,3-dioxoisoindolin-5-yl)amino)propyl)piperazin-1-yl)pyridin-2-yl)amino)-N,N-dimethyl-7H-pyrrolo[2,3-d]pyrimidine-6-carboxamide]: the IC50 in assay [1] was below 50 nM. In assay [2], the DC50 is below 50 nM and the Dmax is above 80%. Moreover, in assay [3], the DC50 was below 50 nM and the Dmax was above 80%.
For the compound `CC(=O)c1c(C)c2cnc(Nc3ccc(N4CCN(C(=O)N5CCC(CC6CCN(c7ccc8c(c7)C(=O)N(C7CCC(=O)NC7=O)C8=O)CC6)CC5)CC4)cn3)nc2n(C2CCCC2)c1=O` (stereo not shown) [Compound 13, 5-(4-((1-(4-(6-((6-acetyl-8-cyclopentyl-5-methyl-7-oxo-7,8-dihydropyrido[2,3-d]pyrimidin-2-yl)amino)pyridin-3-yl)piperazine-1-carbonyl)piperidin-4-yl)methyl)piperidin-1-yl)-2-(2,6-dioxopiperidin-3-yl)isoindoline-1,3-dione], the IC50 in assay [1] was 50 to 200 nM. In assay [2], this compound registered a DC50 of 50 to 200 nM and a Dmax above 60%. In assay [3], the DC50 was 50 to 200 nM and the greatest degradation seen (Dmax) was above 60%.
In the case of `Cc1nc2c(F)cc(-c3nc(Nc4ccc(CC5CCN(C(=O)C6CCN(c7ccc8c(c7)CN(C7CCC(=O)NC7=O)C8=O)CC6)CC5)cn4)ncc3F)cc2n1C(C)C` (stereo not shown) [Compound 162, 3-(5-(4-(4-((6-((5-fluoro-4-(4-fluoro-1-isopropyl-2-methyl-1H-benzo[d]imnidazol-6-yl)pyrimidin-2-yl)amino)pyridin-3-yl)methyl)piperidine-1-carbonyl)piperidin-1-yl)-1-oxoisoindolin-2-yl)piperidine-2,6-dione], the IC50 in assay [1] was 50 to 200 nM. In assay [2], this compound showed a DC50 above 200 nM and a Dmax above 60%. In assay [3], this compound had a DC50 of 50 to 200 nM and a Dmax above 60%.
For `CC(=O)c1c(C)c2cnc(Nc3ccc(N4CCN(C(=O)N5CCN(CCN6CCN(c7ccc8c(c7)CN(C7CCC(=O)NC7=O)C8=O)CC6)CC5)CC4)cn3)nc2n(C2CCCC2)c1=O` (stereo not shown) [Compound 22, 3-(5-(4-(2-(4-(4-(6-((6-acetyl-8-cyclopentyl-5-methyl-7-oxo-7,8-dihydropyrido[2,3-d]pyrimidin-2-yl)amino)pyridin-3-yl)piperazine-1-carbonyl)piperazin-1-yl)ethyl)piperazin-1-yl)-1-oxoisoindolin-2-yl)piperidine-2,6-dione], in assay [1], the IC50 was above 200 nM. In assay [2], the half-maximal degradation concentration (DC50) is above 200 nM and the Dmax is above 60%. In assay [3], the DC50 was above 200 nM and the Dmax is above 60%.
